The results in this text go back to patent US20250204515A1, “Heparanase Inhibition for Graft Protection” (University of Pittsburgh - Of the Commonwealth System of …, priority 2022, published 2025).

For series [1], the system named is human lung microvascular endothelial cells (HLMVECs). Nature of the series: In-vitro cellular toxicity test for HPSE inhibitor candidates. The method, then:
In-vitro cellular toxicity test for HPSE Inhibitor candidates: Human lung microvascular endothelial cells (HLMVECs) were obtained from the American Type Culture Collection (Rockville, MD, USA). Cells were cultured in a humidified incubator at 37° C. and 5% CO2 and grown in endothelial growth medium (EGM™-2 Endothelial Cell Growth Medium-2, Lonza, Basel, Switzerland) supplemented with 2% heat-inactivated fetal bovine serum and 0.04% hydrocortisone. Cell media was replaced every 48 hours, and the cells were split upon 80-90% confluence.
Final tested concentrations of HPSE inhibitors were calculated based upon repeatable in vitro dose-response studies. After 24 hours incubation, cell viability was confirmed by Trypan blue exclusion assay. Total mRNA was isolated using Trizol (Thermo Fisher Scientific Inc., Waltham, MA) and relative messenger RNA (mRNA) expression levels of hemeoxygenase-1 (HO-1), interleukin (IL)-6, tumor necrosis factor (TNF)-α, monocyte chemoattractant protein (MCP)-1, B-cell lymphoma 2 Associated X (Bax), B-cell lymphoma 2 (Bcl-2), B-cell lymphoma-extra-large (Bcl-xL) were quantified by SYBR Green 2-step, real-time, reverse transcription-polymerase chain reaction (RT-PCR). Relative gene expression levels were normalized to mRNA expression of glyceraldehyde-3-phosphate dehydrogenase (GAPDH) and compared to relative mRNA expression levels in control-treated HLMVEC.

The subject of series [2] is MMP-2. Description: Gelatin zymography of EVLP perfusate, inhibitors in perfusate. On the set-up: species or system rat. Conditions: 4 hours EVLP, vs SF4 and control groups. The protocol: Gelatin zymography: Gelatin zymography was performed to measure secreted MMP-2 and MMP-9 activities in EVLP perfusate. Briefly, 20 μl of perfusate was mixed with 2×SDS sample buffer then loaded onto a 10% polyacrylamide gel containing 0.1% SDS and […]. After protein separation by electrophoresis, the gel was washed in renaturing buffer (Novex™ Invitrogen™) at room temperature, and then incubated in developing buffer (Novex™ Invitrogen™) overnight at 37° C. The next day, the gel was stained with Coomassie Brilliant Blue R-250 (Bio-Rad) and imaged (ChemiDoc, Bio-Rad). Enzyme activity, visualized as clear bands against the dark blue background, was quantified using Image-J (NIH).

Series [3] deals with HPSE1, MMP2, IL-6, IL-1β, TNF-α mRNA; IκB-α. Description: Real-time RT-PCR and western blotting in rat lung tissue after 4 hours of EVLP. The protocol:
Graft tissues collected after 4 hours of EVLP and 2 hours after reperfusion were examined for relative mRNA expression levels of interleukin (IL)-6, IL-1, tumor necrosis factor (TNF)-α, and glyceraldehyde-3-phosphate dehydrogenase (GAPDH). Gene expression levels were normalized to GAPDH mRNA levels.
Western blotting: Total isolated proteins were extracted/resolved by 10% SDS-PAGE followed by transfer to 0.2 μm nitrocellulose membranes (Bio-Rad Laboratories, Hercules, CA, USA). Membranes were blocked with 5% non-fat milk at room temperature for 2 hours and then incubated overnight at 4° C. with the following primary antibodies: inhibitor of KB-α (IκB-α; #9242, Cell Signaling Technology, Inc., Danvers, MA) and β-actin (#A1978, Millipore-Sigma). Membranes were then incubated with either goat anti-mouse IgG (H+L) (#31430, Thermo Fisher Scientific Inc.; 1:5000) or goat anti-rabbit IgG (H+L) (#31460, Thermo Fisher Scientific Inc.; 1:3000) horseradish peroxidase-conjugated polyclonal secondary antibodies at room temperature for 2 hours. Proteins were visualized using an enhanced chemiluminescence kit (Abcam), and protein bands were imaged and analyzed using Image Lab software (Version 6.0; Bio-Rad Laboratories, Inc., Hercules, CA). The intensities of protein bands were quantitated by Image J software (National Institutes of Health, Bethesda, MD).
In general terms: In qPCR the cycle at which signal appears reflects the starting amount.

As to heparin, the “toxicity against HLMVECs (endothelial cell cultures)” value in series [1] is “safe”. Moreover, the “MMP-2 activity in EVLP perfusate” value in series [2] is reported as “significantly elevated”. In series [3] (lung tissue after 4-hours EVLP), the “IL-1β mRNA expression” value is “increased”, the “IL-6 mRNA expression” value is “increased” and the “TNF-α mRNA expression” value is recorded as “increased”. For the same substance, in series [3] (lung tissue after 4 hours of EVLP), the pro-MMP2 gene expression result is recorded as “further upregulated”. In addition, the “HPSE1 mRNA expression” value in series [3] (lung tissue after 4 hours of EVLP, vs sham) is on record as “not altered”.
